Measurements from US12492210B2, “Tricyclic compounds and their use” (HUTCHISON MEDIPHARMA LIMITED, priority 2019, dated 2025).

Experiments:
[1] = test system: p-RSK (Thr359) in colo205 cells; experiment: p-RSK (Thr359) Acumen Assay in Colo205; assay type: cell-based; details: Homo sapiens, COLO 205, 1 hour compound incubation, read-out: Example 19 IC50
Protocol: Example 19: p-RSK (Thr359) Acumen Assay in Colo205
• Phospho-p90RSK (Thr359) (D1E9) Rabbit mAb: cell signal, #8753 • Alexa Fluor® 488 donkey anti-rabbit IgG: invitrogen, #A-21206 • Propidium Iodide: Sigma, #p4170 • 4% Paraformaldehyde: SCRC, #DF021 • 10% Triton X-100: PIERCE, #28314 • 96-well plate (black with clear bottom): BD, #354640 • Acumen® eX3 (A Multilaser Microplate Cytometer For Enhanced High Content Screening): TTP LabTech 3. Acumen Assay Protocol • Seed 4000 cells in 100 μl 10% FBS/well into 96-well plate, incubate at 37° C., 5% CO2, overnight. • Dilute the compound to 3, 1, 0.33, 0.11, 0.037, 0.012, 0.004, 0.001 μM, keeping the DMSO concentration at 5%. Add 10 μl of diluted compound per well and incubate at 37° C., 5% CO2 for 1 hour. • Add 100 μl of 4% pre-warmed Paraformaldehyde (2% final), and incubate for 45 min at room temperature. • Remove paraformaldehyde solutions. Add 100 μl of ice-cold 0.1% Triton to fixed cells at room temperature for 30 min. • Wash twice with 150 μl PBS and incubate with 100 μl blocking buffer (1% BSA, in PBS) for 2˜3 hours at room temperature, seal the plate. • Wash once with PBS and incubate with 35 μl p-RSK (Thr359) (1:1000 dilution) overnight at 4° C. Seal the plate. • Wash twice with PBS and incubate for 1.5 hours at room temperature with 35 μl of Alexa Fluor® 488 donkey anti-rabbit IgG at a 1:1,000 dilution in antibody dilution buffer (0.1% BSA, in PBS). Cover plate in foil to keep out of light. • Wash twice with 150 μl PBS. Add 35 μl of 1.5 μM Propidium Iodide stock to each well to determine cell number, seal the plate. • Incubate at room temperature for 30 min. Load the plate into the Acumen Explorer and scan with the appropriate instrument settings. 4. Data Analysis
[formula] Note: • Percentagecompound well represents the positive percentage of cells treated by compound. • Percentagemin well represents the positive percentage of cells treated with 3 uM GDC0994. • Percentagemax well represents the positive percentage of cells without compounds treatment. 5. IC50 Value: determine IC50 with add-in software for Microsoft Excel, XLfit™ (version 2.0) from ID Business Solutions (Guildford, UK)

[2] = biological target: T1, MAPK1(ERK2) enzyme (Homo sapiens, UniProt P28482); experiment: Z-Lyte Kinase Assay of ERK2; assay type: biochemical; details: read-out: Example 18 IC50
T1 construct: purchased Invitrogen PV3313
T1 sequence (P28482 whole entry): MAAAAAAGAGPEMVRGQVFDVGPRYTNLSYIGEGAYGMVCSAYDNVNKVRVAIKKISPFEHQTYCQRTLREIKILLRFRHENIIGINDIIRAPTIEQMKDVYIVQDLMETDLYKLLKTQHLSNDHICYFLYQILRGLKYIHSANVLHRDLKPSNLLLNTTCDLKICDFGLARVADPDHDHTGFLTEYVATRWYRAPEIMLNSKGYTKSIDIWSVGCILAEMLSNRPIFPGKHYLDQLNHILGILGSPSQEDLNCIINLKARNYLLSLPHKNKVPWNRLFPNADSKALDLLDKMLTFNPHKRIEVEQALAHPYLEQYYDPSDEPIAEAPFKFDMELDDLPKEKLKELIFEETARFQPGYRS
Protocol: Example 18: Z-Lyte Kinase Assay of ERK2
1. Materials and Reagents:
2. Reaction Steps: Plate Map
3. Solution Preparation • 1) 1.33× Kinase Buffer: Dilute 5× Kinase Buffer to 1.33× with ddH2O • 2) 4× Test Compounds: Serially dilute the test compounds to 4 folds of the concentrations desired, keeping the DMSO concentration at 8%. The final concentrations are 1, 0.33, 0.11, 0.037, 0.012, 0.004, 0.0014, 0.00046 μM, and the final concentration of DMSO is 2%. • 3) Kinase/Peptide Mixture (P/K solution): Prepare Kinase/Peptide Mixture by diluting the kinase to 0.6 μg/ml and the Z-LYTE™ Ser/Thr3 peptide to 4 μM in 1.33× Kinase Buffer. Mix gently by pipetting. • 4) Phospho-peptide Solution (PP solution): Add 0.4 μl of Z-LYTE™ Ser/Thr3 Phospho-peptide to 99.6 μl of 1.33× Kinase Buffer. • 5) ATP Solution: Prepare ATP Solution by diluting the 10 mM of ATP in 1.33× Kinase Buffer to 100 μM. • 6) Development Solution: Dilute Development Reagent A with Development Buffer as 1:1024. 4. Reaction • 1) Kinase reaction (10 μl of Volume) • a. In a 384-well plate, add 2.5 μl of 4× test Cpds to each well except C1, C2, C3 wells Add 2.5 μl of 8% DMSO to C1, C2, C3 wells • b. Put the plate on ice • c. Add 5 μl of P/K mixture to each test Cpd wells and C1, C2 wells • d. Add 5 μl of PP Solution to C3 well • e. Add 2.5 μl of 1.33× kinase buffer to C1 and C3 wells • f. Add 2.5 μl of 4×ATP Solution to each test Cpd wells and C2 well, respectively. Shake the plate for 30 Sec and centrifuge (1500 rpm, 1 min) • g. Seal the plate to protect from the light and incubate the plate for 1 hour at RT (25-30° C.) • 2) Development reaction • a. Add 5 μl of the Development solution to all wells • b. Shake the plate for 30 sec and centrifuge (1500 rpm, 1 min) • c. Seal the plate to protect from the light and incubate the plate for 1 hour at RT (25-30° C.) • 3) Stop and read • a. Add 5 μl of the Stop reagent to all wells • b. Shake the plate for 30 sec and centrifuge (1500 rpm, 1 min) • c. Measure the value of coumarin (Ex400 nm, Em445 nm) and fluorescein (Ex400 nm, Em520 nm), respectively. 5. Data Analysis Emission Ratio(ER)=Coumarin Emission (445 nm)/Fluorescein Emission (520 nm) % Phosphorylation=1−[ER×C3520nm−C3445nm]/[(C1445nm−C3445nm)+ER×(C3520nm−C1520nm)] Inhibition rate (IR)=1−% Photest Cpd% PhoC2 6. IC50 Value: determine IC50 with add-in software for Microsoft Excel, XLfit™ (version 2.0) from ID Business Solutions (Guildford, UK)

IC50 [1] [nM] | IC50 [2] [nM] | SMILES
≤ 100 | ≤ 5 | Cn1nccc1Nc1cc(-c2cc3n(c2)C[C@H](CF)n2c-3nnc2C(F)(F)C(F)F)c(F)cn1 [Compound 63]
≤ 100 | 5 to 10 | Cc1cnc(Nc2ccnn2C)cc1-c1cc2n(c1)C[C@H](CF)n1c-2nnc1C(F)(F)c1ccc(F)cc1F [Compound 184]
≤ 100 | ≤ 5 | Cc1cnc(N[C@@H](C)CO)nc1-c1cc2n(c1)CCCn1c-2nnc1C1(C(F)(F)F)CCC1 [Compound 275, (S)-2-((5-methyl-4-(3-(1-(trifluoromethyl)cyclobutyl)-6,7-dihydro-5H-pyrrolo[1,2-a][1,2,4]triazolo[3,4-c][1,4]diazepin-10-yl)pyrimidin-2-yl)amino)propan-1-ol]
≤ 100 | ≤ 5 | Cn1nccc1Nc1cc(-c2cc3n(c2)C[C@H](CF)n2c-3nnc2C(F)(F)C(F)F)c(Cl)cn1 [Compound 79]
≤ 100 | 5 to 10 | Cn1nccc1Nc1cc(-c2cc3n(c2)CC(C)(C)Cn2c-3nnc2C2(C(F)(F)F)CCC2)c(Cl)cn1 [Compound 159]
≤ 100 | 5 to 10 | Cc1cnc(Nc2ccnn2C)cc1-c1cc2n(c1)CC(C)(F)Cn1c-2nnc1C(F)(F)C(F)F (centres unmarked) [Compound 72]
≤ 100 | 5 to 10 | Cn1nccc1Nc1cc(-c2cc3n(c2)CC2(CC2)n2c-3nnc2C2(C(F)(F)F)CCC2)c(Cl)cn1 [Compound 259]
≤ 100 | ≤ 5 | Cc1cnc(Nc2ccnn2C)cc1-c1cc2n(c1)CC(C)Cn1c-2nnc1C(F)(F)C(F)F (centres unmarked) [Compound 60]
≤ 100 | 5 to 10 | Cc1cnc(Nc2ccnn2C2COC2)nc1-c1cc2n(c1)C[C@H](C)n1c-2nnc1C(F)(F)c1ccccc1F [Compound 295]
≤ 100 | 5 to 10 | Cc1cnc(Nc2ccnn2C)nc1-c1cc2n(c1)C[C@H](C(F)F)n1c-2nnc1C(F)(F)c1ccccc1F [Compound 186]
> 100 | ≤ 5 | Cn1nccc1Nc1nccc(-c2cc3n(c2)CCCn2c(COc4ccccc4)nnc2-3)n1 [Compound 36, N-(1-methyl-1H-pyrazol-5-yl)-4-(3-(phenoxymethyl)-6,7-dihydro-5H-pyrrolo[1,2-a][1,2,4]triazolo[3,4-c][1,4]diazepin-10-yl)pyrimidin-2-amine]
≤ 100 | ≤ 5 | Cn1nccc1Nc1cc(-c2cc3n(c2)CC(F)(F)Cn2c-3nnc2C2(C#N)CCC2)c(Cl)cn1 [Compound 74]
≤ 100 | ≤ 5 | CO[C@@H]1Cn2cc(-c3cc(Nc4ccnn4C)ncc3Cl)cc2-c2nnc(C3(C(F)(F)F)CCC3)n2C1 [Compound 302]
≤ 100 | ≤ 5 | Cn1nccc1Nc1cc(-c2cc3n(c2)C[C@@H](O)Cn2c-3nnc2C2(C(F)(F)F)CCC2)c(Cl)cn1 [Compound 216]
> 100 | ≤ 5 | Cc1cnc(NC2CC(F)(F)C2)nc1-c1cc2n(c1)CCCn1c-2nnc1C1(C(F)(F)F)CCC1 [Compound 278]
≤ 100 | ≤ 5 | Cn1nccc1Nc1cc(-c2cc3n(c2)CCCn2c-3nnc2C2(C(F)(F)F)CCC2)c(Cl)cn1 [Compound 30]

IC50 [1] [nM] | IC50 [2] [nM] | SMILES
≤ 100 | ≤ 5 | Cn1nccc1Nc1nccc(-c2cc3c4nnc(COc5ccccc5Cl)n4ccn3c2)n1 [Compound 40]
≤ 100 | 5 to 10 | CO[C@H]1Cn2cc(-c3cc(Nc4ccnn4C)ncc3Cl)cc2-c2nnc(C3(C(C)(F)F)CCC3)n2C1 [Compound 155]
≤ 100 | > 10 | Cc1cc(Nc2ncc(C)c(-c3cc4n(c3)C[C@H](C)n3c-4nnc3C(F)(F)c3ccccc3F)n2)n(C)n1 [Compound 288]
≤ 100 | ≤ 5 | Cn1nccc1Nc1cc(-c2cc3n(c2)CC(F)(F)Cn2c-3nnc2C(C)(C)C(F)(F)F)c(Cl)cn1 [Compound 146]
≤ 100 | ≤ 5 | Cn1nccc1Nc1cc(-c2cc3n(c2)CC2(COC2)Cn2c-3nnc2C(F)(F)C(F)F)c(Cl)cn1 [Compound 304, 5-chloro-N-(1-methyl-1H-pyrazol-5-yl)-4-(3′-(1,1,2,2-tetrafluoroethyl)-5′H,7′H-spiro[oxetane-3,6′-pyrrolo[1,2-a][1,2,4]triazolo[3,4-c][1,4]diazepin]-10′-yl)pyridin-2-amine]
≤ 100 | ≤ 5 | Cc1cnc(Nc2ccnn2C)nc1-c1cc2n(c1)CCCn1c(COc3ccccc3F)nnc1-2 [Compound 17]
≤ 100 | 5 to 10 | Cc1cnc(Nc2ccnn2C)nc1-c1cc2n(c1)C[C@H](CF)n1c-2nnc1C(F)(F)c1ccccc1Cl [Compound 176]
≤ 100 | ≤ 5 | Cc1cnc(Nc2ccnn2C)cc1-c1cc2n(c1)CC(F)(F)Cn1c-2nnc1C(F)(F)C(F)F [Compound 78]
≤ 100 | ≤ 5 | Cc1cnc(Nc2ccnn2C)cc1-c1cc2n(c1)C[C@H](CF)n1c-2nnc1C1(C(F)(F)F)CCC1 [Compound 82]
> 100 | > 10 | C[C@H](Oc1ccccc1F)c1nnc2n1CC(C)(C)Cn1cc(-c3ccnc(Nc4ccnn4C)n3)cc1-2 [Compound 44, (S)-4-(3-(1-(2-fluorophenoxy)ethyl)-6,6-dimethyl-6,7-dihydro-5H-pyrrolo[1,2-a][1,2,4]triazolo[3,4-c][1,4]diazepin-10-yl)-N-(1-methyl-1H-pyrazol-5-yl)pyrimidin-2-amine]
≤ 100 | 5 to 10 | Cc1cnc(Nc2ccnn2C)cc1-c1cc2n(c1)C[C@H](CF)n1c-2nnc1C(F)(F)c1ccccc1Cl [Compound 172]
≤ 100 | ≤ 5 | Cn1nccc1Nc1nccc(-c2cc3n(c2)C[C@H](C(F)F)n2c-3nnc2C(F)(F)c2ccccc2F)n1 [Compound 149]
≤ 100 | > 10 | C[C@H]1Cn2cc(-c3cc(Nc4ccnn4C)ncc3Cl)cc2-c2nnc(C(F)(F)c3ccccc3Cl)n21 [Compound 178]
> 100 | ≤ 5 | Cn1nccc1Nc1cc(-c2cc3n(c2)CCC2(CC2)n2c(CCC(F)(F)F)nnc2-3)c(Cl)cn1 [Compound 255]
≤ 100 | ≤ 5 | Cn1nccc1Nc1cc(-c2cc3n(c2)CCCn2c-3nnc2[C@](C)(O)C(F)(F)F)c(Cl)cn1 [Compound 26]
